Reference: patent publication US20210161134A1, “HERBICIDE AND METHOD OF APPLYING A HERBICIDE” (priority 2015, published 2021)
Where two headings read alike, the source gives them in different places.

Experiments:
Field Bindweed = test: Killing of field bindweed by amino acid (FIG. 4); type: in vivo
wild rubarb = test: Killing of wild rhubarb by amino acid; type: in vivo
Canada thistle = test: Killing of Canada thistle by amino acid herbicide (FIG. 1)
hounds tongue = test: Killing of hounds tongue by amino acid; type: in vivo
leafy spurge = test: Killing of leafy spurge by amino acids; type: in vivo
dandilions = test: Killing of dandelions by amino acid herbicide; type: in vivo, dandelion
common yarroen = test: Killing of common yarrow by amino acid; type: in vivo
hoary alssum = test: Killing of hoary alyssum by amino acid; type: in vivo
Rush Skeleton weed = test: Killing of rush skeleton weed by amino acid (FIG. 3); type: in vivo
morning glories = test: Killing of morning glories by amino acid; type: in vivo
Spotted Knapweed = test: Killing of spotted knapweed by amino acids; type: in vivo

## NCCCC[C@H](N)C(=O)O [L-Lysine]
Field Bindweed
  kill of the weed: killed
Wild rubarb
  kill of the weed: kill
Canada thistle
  kill of the weed: kill
Canada thistle; listed as lysine
  kill of the weed: kills the plant
Hounds tongue
  kill of the weed: kill
Leafy spurge
  kill of the weed: kill
dandilions
  kill of the weed: kill
Common yarroen
  kill of the weed: kill
Hoary alssum
  kill of the weed: kill
Rush Skeleton weed
  kill of the weed: kill
Rush Skeleton weed; listed as Lysine
  kill of the weed: killed
Morning glories
  kill of the weed: kill

## CSCC[C@H](N)C(=O)O [L-methionine]
Kudzu
  kill of the weed: kill
Kudzu; listed as Methionine
  kill of the weed: killed
Canada thistle
  kill of the weed: kills the plant
Poa anna
  kill of the weed: kill
Spotted Knapweed
  kill of the weed: kill
Eurasian milfoil
  kill of the weed: kill

## CC(C)[C@H](N)C(=O)O [Valine]
Hounds tongue
  kill of the weed: killed
